Assay results: patent publication US7141691B2, “Protein-bound derivatives of platinum complexes containing cyclobutane1, 1-dicarboxyllate ligands” (KTB Tumorforschungs GmbH, priority 2003, dated 2006)

System: MaTu (mammary carcinoma)
Assay: Efficacy in vivo, MaTu tumor model in naked mice (change in tumor volume)
Details: DACH-Pt-CB-1-Mal 75 and 100 mg/kg i.v. once on day 7, carboplatin 100 mg/kg once on day 7 or 75 mg/kg on days 7 and 14
Method: The invention is elucidated in more detail by the following examples in conjunction with the figures. […] Animals: naked mice Tumor model: MaTu (mammary carcinoma) Treatment: DACH-Pt-CB-1-Mal (75 and 100 mg/kg) and carboplatin (100 mg/kg) once on day 7, carboplatin (75 mg/kg) on each of days 7 and 14; i.v. (carboplatin and derivatives each in 0.15 0.3 ml glucose phosphate buffer pH 6.5).

SMILES: O=C(CCOCCN1C(=O)C=CC1=O)OC1CC2(C1)C(=O)[O][Pt]1([NH]C3CCCC[C@H]3[NH]1)[O]C2=O (stereo partly drawn) [DACH-Pt-CB-1-Mal, trans-(R,R/S,S)-cyclohexane-1,2-diaminoplatinum(II)-[3-(6-maleinimido-4-oxacaproyl)cyclobutane-1,1-dicarboxylate]]
- in vivo efficacy (change in the tumor volume) compared to carboplatin: increased compared to carboplatin
